The species named for experiment [1] is Rattus norvegicus. Briefly: Antiinflammatory activity in rat pyresis model. The class given is functional.
Experiment [2] is described as follows: Antiinflammatory activity in human HL60 cells assessed as inhibition of LPS-induced IL-1beta production. Format: functional, cell-based. Particulars: HL-60.
The nature of experiment [3]: Antiplatelet activity in human washed platelets assessed as reduction in thrombin-induced platelet aggregation preincubated for 5 mins followed by thrombin induction measured after 5 mins by dual channel aggregometric analysis. The class given is functional, cell-based.
A short description of experiment [4]: Cytotoxicity against human QGY7703 cells assessed as cell growth inhibition after 72 hrs in presence of 5% CO2 by MTS assay. The class given is functional. Particulars: QGY-7703, 72 h.
Experiment [5] in a line: Cytotoxicity against human Bel7402 cells assessed as cell growth inhibition after 72 hrs in presence of 5% CO2 by MTS assay. The class given is functional. Particulars: Bel-7402, 72 h.
The nature of experiment [6]: Cytotoxicity against human SMMC7721 cells assessed as cell growth inhibition after 72 hrs in presence of 5% CO2 by MTS assay. Particulars: SMMC-7721, 72 h. Format: functional. (In general: Tetrazolium dyes change colour on reduction, which living cells bring about.)
In experiment [7] the test system is Rattus norvegicus. Description: Antiinflammatory activity in rat paw edema model. Format: functional.
The nature of experiment [8]: Antiplatelet activity in human platelets assessed as reduction in thrombin-induced platelet aggregation by turbidimetric method. The class given is functional, cell-based.
Experiment [9] has as its target T1, Adrenergic receptor alpha-1 (Rattus norvegicus, UniProt P15823+P23944+P43140).
T1 sequence (P15823 whole entry): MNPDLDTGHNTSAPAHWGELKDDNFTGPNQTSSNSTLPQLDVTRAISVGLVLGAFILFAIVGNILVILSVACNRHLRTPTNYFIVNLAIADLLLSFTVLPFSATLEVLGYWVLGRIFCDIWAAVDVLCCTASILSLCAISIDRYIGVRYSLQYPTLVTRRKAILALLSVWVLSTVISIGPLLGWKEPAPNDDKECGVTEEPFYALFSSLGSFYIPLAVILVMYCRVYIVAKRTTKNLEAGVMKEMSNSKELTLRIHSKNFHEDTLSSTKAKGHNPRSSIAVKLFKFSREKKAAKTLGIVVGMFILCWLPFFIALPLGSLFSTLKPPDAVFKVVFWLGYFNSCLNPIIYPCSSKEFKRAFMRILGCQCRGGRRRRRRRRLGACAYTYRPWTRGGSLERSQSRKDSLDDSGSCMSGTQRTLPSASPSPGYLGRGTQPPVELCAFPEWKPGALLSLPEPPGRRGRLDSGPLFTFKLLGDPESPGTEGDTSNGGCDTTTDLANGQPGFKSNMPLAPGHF
T1 sequence (P23944 whole entry): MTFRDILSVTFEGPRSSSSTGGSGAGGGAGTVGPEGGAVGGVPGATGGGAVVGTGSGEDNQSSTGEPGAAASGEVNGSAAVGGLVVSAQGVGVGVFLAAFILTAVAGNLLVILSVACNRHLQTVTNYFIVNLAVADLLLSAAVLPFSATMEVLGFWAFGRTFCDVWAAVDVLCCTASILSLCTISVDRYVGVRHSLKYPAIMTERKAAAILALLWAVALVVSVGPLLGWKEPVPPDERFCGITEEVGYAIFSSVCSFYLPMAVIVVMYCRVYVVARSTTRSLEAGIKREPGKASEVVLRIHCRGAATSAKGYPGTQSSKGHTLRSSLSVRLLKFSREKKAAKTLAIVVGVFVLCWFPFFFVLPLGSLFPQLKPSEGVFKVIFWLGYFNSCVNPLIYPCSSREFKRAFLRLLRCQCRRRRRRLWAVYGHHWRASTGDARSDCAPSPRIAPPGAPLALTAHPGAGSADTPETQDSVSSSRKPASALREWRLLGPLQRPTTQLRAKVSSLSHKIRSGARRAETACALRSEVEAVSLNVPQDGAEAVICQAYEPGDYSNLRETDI
T1 sequence (P43140 whole entry): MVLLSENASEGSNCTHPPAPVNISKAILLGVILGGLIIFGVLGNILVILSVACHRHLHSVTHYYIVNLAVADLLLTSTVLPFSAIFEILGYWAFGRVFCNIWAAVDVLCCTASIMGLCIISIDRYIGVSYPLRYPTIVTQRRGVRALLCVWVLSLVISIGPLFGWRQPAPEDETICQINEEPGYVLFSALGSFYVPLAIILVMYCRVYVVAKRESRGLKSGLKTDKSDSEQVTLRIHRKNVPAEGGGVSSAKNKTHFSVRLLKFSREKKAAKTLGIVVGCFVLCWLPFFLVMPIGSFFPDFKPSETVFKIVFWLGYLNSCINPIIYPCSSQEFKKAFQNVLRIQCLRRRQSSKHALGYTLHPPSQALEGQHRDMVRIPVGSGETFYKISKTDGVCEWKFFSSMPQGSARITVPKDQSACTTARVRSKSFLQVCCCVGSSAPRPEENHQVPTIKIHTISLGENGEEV
Description: Displacement of [3H]prazosin from alpha1-adrenergic receptor in rat cerebral cortex membranes. Format: cell membranes, Membrane. (In general: In a radioligand displacement assay an active substance lowers the binding of a labelled ligand.)

The target of experiment [10] is Adrenergic receptor alpha-1 (Rattus norvegicus) (UniProt P15823+P23944+P43140). Description: Potency index, ratio of compound affinity to prazosin affinity for alpha1-adrenergic receptor in rat cerebral cortex membranes. Format: cell membranes. Conditions: Membrane.
Experiment [11] can be described thus: Agonist activity at PGI2 in human platelet-rich plasma assessed as inhibition of ADP-induced platelet aggregation.
Experiment [12] can be described thus: Cytotoxicity against human IMR32 cells assessed as reduction in cell viability after 72 hrs by MTT assay. The class given is functional, cell-based. Conditions: IMR-32, 72 h.

pIC50: −log10 of the molar value.

Broadly, the ED50 is the midpoint of the dose-response relation. Low readings indicate an effect at a small dose, high ones a need for a large dose. For `C[C@H]1C[C@@H]1Cn1ncc(-c2ccc(S(C)(=O)=O)cc2)c(-c2ccc(F)cc2)c1=O`, it took a dose of 1.1 mg/kg to reach the 50% effect level in [1] (ED50).
As usually defined, the pIC50 is −log10 of the IC50, conventionally taken in molar units. Regarding `COc1ccc(-c2cc(=O)n(CC/C=C/c3ccccc3)nc2-c2ccc(OC)cc2)cc1`, the pIC50 in experiment [2] was 7.00.
On to `COC(=O)C(=Cc1cc(=O)[nH]nc1-c1ccccc1)C(=O)OC`, for which the pIC50 in experiment [3] is 4.35.
In general, GI50 refers to the concentration at which growth is held to half of that of the control. As to `O=c1ccc(-c2ccc(N3CCOCC3)c(C(F)(F)F)c2)n[nH]1`, the GI50 in experiment [4] amounted to 30.2 nM; in experiment [5] it was 469 nM; in experiment [6], 28.7 nM.
As to `CCOC(=O)C(=Cc1cc(=O)[nH]nc1-c1ccccc1)C(=O)OCC`, the pIC50 in [3] was 4.70.
In [7], `CC(C)Oc1c(-c2ccc(S(C)(=O)=O)cc2)cnn(Cc2ccccc2)c1=O` gave an ED50 of 0.3 mg/kg.
As for `O=C(/C=C/c1cc(=O)[nH]nc1-c1ccccc1)c1ccc(Cl)cc1Cl`, the negative logarithm of the IC50 (pIC50) in experiment [8] was 5.46.
Turning to `CC(C)(C)c1ccc(CSc2c(-c3ccccc3)nn(C(C)(C)C)c(=O)c2F)cc1`, the pIC50 in experiment [3] was 4.82.
On the same count and under the same terms, then `O=C(/C=C/c1cc(=O)[nH]nc1-c1ccccc1)c1ccccc1`, with 4.60.
Broadly, the Ki is a measure of affinity in units of concentration, obtained from inhibition or displacement. Lower therefore signals tighter binding. For `O=C(c1ccco1)N1CCN(c2cnn(CCCCCCCN3CCN(c4ccccc4Oc4ccccc4)CC3)c(=O)c2Cl)CC1`, the Ki in experiment [9] was determined as 0.052 nM. Moreover, the Ratio in experiment [10] came to 5.
Consider `O=C(O)COc1cccc2c1CC[C@H](Cn1nc(C(c3ccccc3)c3ccccc3)ccc1=O)C2`, for which the pIC50 in [11] was 7.09.
As for `COC(=O)/C(=C/c1cc(O)nnc1-c1ccccc1)C(C)=O`, the negative-log IC50 (pIC50) in experiment [3] was 4.60.
Turning to `Cc1n[nH]c(=O)c2c1c1cc(F)ccc1n2Cc1cn(C2CCCCC2)nn1`, the pIC50 in experiment [12] is 7.40.

Source of the values: ChEMBL document CHEMBL3871265, “The therapeutic journey of pyridazinone” (Eur J Med Chem, 2016).
